Results from patent US12049455B2, “Compositions and methods for the prevention and/or treatment of mitochondrial disease, including Friedreich's ataxia” (Stealth BioTherapeutics Inc., priority 2019, dated 2024).

Key:
[1] = tested on: frataxin deficient fibroblasts (GM03665); assay type: cell-based; conditions: summary of Table 7
HepG2 cells = experiment: Rotenone Oxygraph Assay (high-resolution respirometry of intact HepG2 cells); assay type: cell-based, human; conditions: for active in Complex I by-pass (in words): summary of Table 7 (Rotenone ATP and Rotenone Oxygraph assays)
Description: The Oxygraph-2 k (O2k, OROBOROS INSTRUMENTS, Austria) was used for measurements of respiration of intact cells. The respirometry was performed in Dulbecco's Modified Eagle Medium (DMEM) high glucose without supplements. All experiments were performed at 37° C.
HepG2 cells (ATCC collection code HB-8065™) were cultured in 10 cm^2 culture dishes in DMEM high glucose medium supplemented with 10% fetal bovine serum (FBS) and 100 units/mL penicillin and 100 μg/mL streptomycin until approximately 90% confluence was reached. Immediately prior to performing the respirometric assay, the cells were washed with media without FBS, trypsinized and resuspended in DMEM high glucose without FBS.
The final concentration of intact cells in the O2k-chamber was 0.5·10^6/mL. After stabilization of respiration, the Complex I inhibitor, rotenone, at 1 μM final concentration was added to inhibit electron flux via Complex I. Then, compound to be tested was added at 10 μM final concentration, and the change in respiration rate of intact cells was monitored.

Nrf-2 = Nrf-2 Activation Assay (Nrf-2 Assay); assay type: cell-based, human; conditions: 1 μM compound, 24 hours
Description: This assay was developed internally and was designed to determine if the novel test compounds disclosed herein active Nrf-2 and thereby promote resolution of inflammation by the mechanism believed to be responsible for the activity of omaveloxolone.
Briefly, GM03665 Friedreich Ataxia patient fibroblasts were grown in 12 Well Plates (TC Cell+F) (Sarstedt, Numbrecht Germany), at a density of […] in DMEM/F12 (Gibco, ThermoFisher Scientific, Waltham, MA, USA) cell media supplemented with 10% FBS and 1% Pen/Strep. Cells were left to rest overnight at 37° C. in a humidified atmosphere with 5% CO2 to allow attachment of the cells to the culture plate. Before continuing assay visual inspection of each well was done by light microscopy to detect any possible bacterial and fungal contamination. […] After incubation, cell media was removed and total RNA from the cells was isolated using E.Z.N.A.® Total RNA Kit I (Omega Bio-tek, Norcross, Georgia, USA) spin columns, and first-strand cDNA synthesis was carried out using a High Capacity cDNA Reverse Transcription Kit (Applied Biosystems™, Foster City, CA) following the manufacturer's instructions. qPCR analysis of gene expression was performed by mixing SYBR® Green Master Mix (Applied Biosystems™) with synthesized cDNA and forward and reverse primers. […] (60 cycles), and 95° C. for 60 seconds, followed by melt curve analysis at 72-95° C., 0.3° C./sec. The relative expression levels for each gene were calculated with the ΔΔCt method and normalized to the expression of REEP5 and SNRPD3 genes.

GM03665 cells = experiment: RSL3 Toxicity Assay (RSL3 Assay); assay type: cell-based, human; conditions: protection of Friedreich's ataxia fibroblasts from RSL3
Description: In brief, GM03665 cells (Coriell Institute) were seeded in 96-well plates (Sarstedt) in DMEM cell culture media containing 10% Fetal Bovine serum and 1% Penicillin-Streptomycin (Pen-Strep) antibiotic mix at the amount of 2×10^4/mL (100 μL or 2×10^3 cells per well). Cells were left to rest overnight at 37° C. in a humidified atmosphere with 5% CO2 to allow attachment of the cells to the culture plate. Test compounds were prepared as DMSO stocks (10 mM) and were serially diluted in cell culture media to obtain 2× working solutions. Cell media was discarded and replaced by 50 μL of test compound solutions or cell media with vehicle for control wells. Within 15 minutes, 2× working solution (4 μM) of 1S,3R-RSL3 (CAS #1219810-16-8, Sigma-Aldrich) (diluted from 5 mM DMSO stock in cell culture media) was added. Final reaction volume was 100 μL and final DMSO concentration in reaction was kept below 0.2% (v/v) and equal in all wells. Final RSL3 concentration was 2 μM and test compound final concentrations in reaction were up to 1000 nM. After 24 hours of incubation cell viability was assessed by MTT test. MTT (Sigma-Aldrich) solution 1 mg/mL in 1×PBS (pH=7,4) was prepared 1 hour before the assay and filtered through Filtropur S 0.2 filters (Sarstedt). […] Absorption at 570 and 650 nm was measured using Hidex Sense microplate reader.

Compound	activity in the BSO assay (in words) [1]	Rotenone Oxygraph Assay % Increase (Table 7) (HepG2 cells; intact HepG2 cells, rotenone 1 μM, compound 10 μM)	Percent increase in ATP (Rotenone Oxygraph Assay, Table 4) (HepG2 cells; intact HepG2 cells, rotenone 1 μM, compound 10 μM, change in respiration rate)	active in Complex I by-pass (in words) (HepG2 cells)	activation of Nrf-2 responsive genes (in words, FIG. 7) (Nrf-2)	Nrf-2 Assay (Table 7) (Nrf-2; GM03665 fibroblasts, qPCR of Nrf-2 responsive genes)	activity in the RSL3 Assay (in words) (GM03665 cells)
COC1=C(OC)C(=O)C(CCCCCCCCCCO)=C(C)C1=O [Idebenone, reference compound]	very weakly active/borderline inactive	–	–	–	–	–	–
(R)-2-(3-hydroxy-3-methyl-4-(3-(trimethylsilyl)propoxy)butyl)-3,5,6-trimethylcyclohexa-2,5-diene-1,4-dione [Compound M]	active	56.6 +/− 11.3%	56.6 +/− 11.3%	active	do not activate	Inactive	active
CC1(C)CC[C@]2(NC(=O)C(C)(F)F)CC[C@]3(C)[C@H](C(=O)C=C4[C@@]5(C)C=C(C#N)C(=O)C(C)(C)[C@@H]5CC[C@]43C)[C@@H]2C1 [Omaveloxolone, reference compound]	–	–	–	are not	positive	–	completely inactive
CC1=C(C)C(=O)C(CC[C@](C)(O)CC/C=C(\C)CC/C=C(\C)CCC=C2COC2)=C(C)C1=O [Compound E, 2-((R,6E,10E)-3-hydroxy-3,7,11-trimethyl-14-(oxetan-3-ylidene)tetradeca-6,10-dien-1-yl)-3,5,6-trimethylcyclohexa-2,5-diene-1,4-dione]	–	–	–	–	do not activate	–	–
